Results reported in ChEMBL document CHEMBL1201862, “PubChem BioAssay data set” (2004).
Values belong to the molecule of their own block, whether it stands above or below them. The source made the active and inactive calls.

How the values were obtained:
[1] = biological target: Dual specificity tyrosine-phosphorylation-regulated kinase 1A (Rattus norvegicus, UniProt Q63470); format: biochemical, Homo sapiens
Prothrombin = Prothrombin (Homo sapiens, UniProt P00734); experiment: Thrombin 1536 HTS Dose Response Confirmation. [Related pubchem assays: 1046 (Thrombin 1536 HTS; hits were confirmed in this assay)]; format: functional
[2] = biological target: T1, Heat shock factor protein 1 (Mus musculus, UniProt P38532); experiment: decrease of HSF1-responsive luciferase luminescence – cell-based, NIH3T3, dose retest, confirmation (AID 2382); format: functional;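 also: NIH3T3 fibroblasts with HSF1-driven luciferase reporter stressed by proteasome inhibitor MG132; luminescence from HSF1-driven luciferase expression after 8 hours of MG132 stress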
T1 sequence (P38532 whole entry): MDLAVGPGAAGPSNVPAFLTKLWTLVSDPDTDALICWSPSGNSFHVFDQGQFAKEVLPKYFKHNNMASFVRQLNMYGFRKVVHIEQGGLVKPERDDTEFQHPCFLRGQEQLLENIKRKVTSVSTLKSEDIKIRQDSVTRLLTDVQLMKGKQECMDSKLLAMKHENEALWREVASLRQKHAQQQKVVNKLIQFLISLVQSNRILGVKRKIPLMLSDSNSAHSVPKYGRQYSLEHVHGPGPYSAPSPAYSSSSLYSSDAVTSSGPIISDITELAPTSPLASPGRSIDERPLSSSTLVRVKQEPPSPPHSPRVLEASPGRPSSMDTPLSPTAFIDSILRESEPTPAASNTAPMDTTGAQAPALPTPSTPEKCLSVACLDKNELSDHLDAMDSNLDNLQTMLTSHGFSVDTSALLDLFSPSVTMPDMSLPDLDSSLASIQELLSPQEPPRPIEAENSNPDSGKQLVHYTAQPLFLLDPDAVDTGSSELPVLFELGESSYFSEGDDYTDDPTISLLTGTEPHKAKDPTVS

[3] = biological target: Dual specificity protein kinase CLK1 (Homo sapiens, UniProt P49759); experiment: inhibition of human CLK1 activity – biochemical, cherry-picked samples, selectivity assay for Dyrk1A inhibitor project, dose response (AID 588811)
Chain of Dual specificity protein kinase CLK1 (P49759 whole entry): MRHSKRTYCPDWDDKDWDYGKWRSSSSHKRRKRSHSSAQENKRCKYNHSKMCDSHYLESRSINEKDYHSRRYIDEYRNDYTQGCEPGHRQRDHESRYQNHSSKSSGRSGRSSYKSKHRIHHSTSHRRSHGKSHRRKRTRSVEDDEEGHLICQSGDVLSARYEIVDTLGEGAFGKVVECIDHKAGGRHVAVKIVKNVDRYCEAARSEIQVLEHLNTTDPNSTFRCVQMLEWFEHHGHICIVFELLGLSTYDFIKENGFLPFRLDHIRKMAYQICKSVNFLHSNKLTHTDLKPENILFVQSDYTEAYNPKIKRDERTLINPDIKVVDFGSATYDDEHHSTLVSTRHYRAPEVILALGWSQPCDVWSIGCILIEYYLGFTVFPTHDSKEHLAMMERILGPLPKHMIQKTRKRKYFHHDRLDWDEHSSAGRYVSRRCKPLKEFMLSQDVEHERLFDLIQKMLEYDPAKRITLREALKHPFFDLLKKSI

Cysteine protease ATG4B = Cysteine protease ATG4B (Homo sapiens, UniProt Q9Y4P1); format: functional;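 also: Fluorescence-based dose-response confirmation assay measuring inhibition of ATG4B activity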
Chain of Cysteine protease ATG4B (Q9Y4P1 whole entry): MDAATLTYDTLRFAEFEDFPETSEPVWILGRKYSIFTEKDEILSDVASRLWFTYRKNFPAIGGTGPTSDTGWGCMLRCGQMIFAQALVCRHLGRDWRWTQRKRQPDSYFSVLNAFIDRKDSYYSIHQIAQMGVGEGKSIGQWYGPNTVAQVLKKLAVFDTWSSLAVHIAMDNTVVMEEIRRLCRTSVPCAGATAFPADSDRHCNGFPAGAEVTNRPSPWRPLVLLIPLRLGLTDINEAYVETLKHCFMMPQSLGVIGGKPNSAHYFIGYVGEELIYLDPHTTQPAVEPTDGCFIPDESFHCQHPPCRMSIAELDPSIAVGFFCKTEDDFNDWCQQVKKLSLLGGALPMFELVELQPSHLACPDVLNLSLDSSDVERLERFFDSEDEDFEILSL

Phospholipase A2 = Phospholipase A2 (Homo sapiens, UniProt P04054); format: functional;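 also: confirmatory dose-response counterscreen on phospholipase A2, testing hits that came from an ultra-high-throughput screen for ATG4B inhibitors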
Chain of Phospholipase A2 (P04054 whole entry): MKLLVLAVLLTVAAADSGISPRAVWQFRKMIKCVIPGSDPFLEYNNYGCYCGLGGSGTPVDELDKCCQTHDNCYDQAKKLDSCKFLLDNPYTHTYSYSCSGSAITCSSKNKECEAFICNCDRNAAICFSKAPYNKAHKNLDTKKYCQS

[4] = biological target: T2, Short transient receptor potential channel 4 (Mus musculus, UniProt Q9QUQ5); experiment: mouse TRPC4 block via Gq-coupled stimulation – cell-based, acetylcholine stimulus, HEK293 TRPC4, Fluo-4, SAR follow-up (AID 492996); format: functional
T2 sequence (Q9QUQ5 whole entry): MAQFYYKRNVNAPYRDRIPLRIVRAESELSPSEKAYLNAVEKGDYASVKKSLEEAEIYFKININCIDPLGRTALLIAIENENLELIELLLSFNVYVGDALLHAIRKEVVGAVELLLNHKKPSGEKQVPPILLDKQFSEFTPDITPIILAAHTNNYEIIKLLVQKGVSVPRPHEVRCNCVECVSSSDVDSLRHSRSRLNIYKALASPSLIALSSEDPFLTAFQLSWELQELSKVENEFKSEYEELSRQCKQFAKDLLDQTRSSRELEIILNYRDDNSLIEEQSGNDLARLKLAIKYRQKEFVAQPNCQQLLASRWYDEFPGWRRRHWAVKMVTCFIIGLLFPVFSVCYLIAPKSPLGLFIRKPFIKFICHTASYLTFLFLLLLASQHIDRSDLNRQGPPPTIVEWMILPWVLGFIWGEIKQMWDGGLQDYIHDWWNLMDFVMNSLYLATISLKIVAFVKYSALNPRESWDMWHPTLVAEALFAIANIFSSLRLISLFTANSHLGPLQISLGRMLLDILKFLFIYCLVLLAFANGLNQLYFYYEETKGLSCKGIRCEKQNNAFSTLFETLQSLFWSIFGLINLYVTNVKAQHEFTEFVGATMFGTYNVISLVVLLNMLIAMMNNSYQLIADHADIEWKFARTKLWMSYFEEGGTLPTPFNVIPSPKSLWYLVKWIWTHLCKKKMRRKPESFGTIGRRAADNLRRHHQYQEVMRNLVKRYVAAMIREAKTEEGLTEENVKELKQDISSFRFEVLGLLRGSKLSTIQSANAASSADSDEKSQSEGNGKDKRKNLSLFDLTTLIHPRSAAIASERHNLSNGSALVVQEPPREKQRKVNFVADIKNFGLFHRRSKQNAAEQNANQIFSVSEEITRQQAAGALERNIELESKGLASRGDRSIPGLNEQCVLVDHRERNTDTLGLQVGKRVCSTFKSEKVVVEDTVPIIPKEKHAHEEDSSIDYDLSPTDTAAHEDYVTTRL

INS1 = experiment: INS-1E survival protection against cytokine death – cell-based, luminescence, retest, dose response (AID 449756); format: functional; conditions: Rattus norvegicus;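 also: cell death triggered by IL-1 beta plus TNF-alpha plus IFN-gamma mixture; protective hits raise ATP signal compared with cytokine alone wells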
[5] = biological target: T3, Microphthalmia-associated transcription factor (Homo sapiens, UniProt O75030); experiment: reducers of TRPM1 reporter luminescence, concentration series – cell-based, SK-MEL-5, cherry-picked, set 3, MITF inhibitor project, dose response (AID 493073); format: functional;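 also: SK-MEL-5 melanoma cells with luciferase driven by the MITF target TRPM1 promoter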
T3 sequence (O75030 whole entry): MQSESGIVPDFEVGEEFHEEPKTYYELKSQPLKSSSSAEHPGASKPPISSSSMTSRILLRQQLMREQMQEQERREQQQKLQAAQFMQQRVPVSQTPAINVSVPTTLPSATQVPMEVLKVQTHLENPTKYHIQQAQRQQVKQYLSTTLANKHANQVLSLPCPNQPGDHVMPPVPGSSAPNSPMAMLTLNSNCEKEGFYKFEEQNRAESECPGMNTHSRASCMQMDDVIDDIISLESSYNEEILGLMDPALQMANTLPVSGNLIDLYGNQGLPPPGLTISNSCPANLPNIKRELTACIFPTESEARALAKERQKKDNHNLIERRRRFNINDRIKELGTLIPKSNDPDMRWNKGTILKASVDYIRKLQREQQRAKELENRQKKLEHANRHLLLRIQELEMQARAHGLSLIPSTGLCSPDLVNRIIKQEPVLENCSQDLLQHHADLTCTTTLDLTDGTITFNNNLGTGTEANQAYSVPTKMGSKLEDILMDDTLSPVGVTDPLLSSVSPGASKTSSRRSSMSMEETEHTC

A-375 = experiment: MITF: Counter assay: A375 proliferation Measured in Cell-Based System Using Plate Reader - 2084-03_Inhibitor_Dose_DryPowder_Activity. [Related pubchem assays (depositor defined):AID488944]; format: functional; conditions: Homo sapiens
[6] = fluconazole-exposed Candida albicans growth modulators – fluorescence, retest, confirmation (AID 2467); format: functional, cell-based
[7] = decrease of insulin promoter-GFP reporter – imaging, high-content screening, mouse beta cells (AID 1628); format: functional; conditions: MIN6
[8] = NIH-3T3 fibroblast cytotoxicity, dose response, cytotoxicity control, cell-based, fluorescence, Alamar Blue, secondary assay (AID 2327); format: functional;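 also: NIH-3T3 mouse fibroblasts cultured with fluconazole at 8 µg/mL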
[9] = MIN6 cell viability loss – mouse insulinoma, cytotoxicity control, dose response (AID 2122); format: functional;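 also: confirmatory high-throughput counterscreen run to flag cytotoxic compounds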
HEK293 = experiment: cells; format: functional, cell-based; conditions: Homo sapiens
[10] = biological target: Nuclear receptor subfamily 0 group B member 1 (Homo sapiens, UniProt P51843); experiment: Luminescence-based cell-based high throughput dose response assay for inhibitors of the orphan nuclear receptor subfamily 0, group B, member 1 (DAX1; NR0B1). [Related pubchem assays (depositor defined):AID504766, AID504790]; format: functional
Chain of Nuclear receptor subfamily 0 group B member 1 (P51843 whole entry): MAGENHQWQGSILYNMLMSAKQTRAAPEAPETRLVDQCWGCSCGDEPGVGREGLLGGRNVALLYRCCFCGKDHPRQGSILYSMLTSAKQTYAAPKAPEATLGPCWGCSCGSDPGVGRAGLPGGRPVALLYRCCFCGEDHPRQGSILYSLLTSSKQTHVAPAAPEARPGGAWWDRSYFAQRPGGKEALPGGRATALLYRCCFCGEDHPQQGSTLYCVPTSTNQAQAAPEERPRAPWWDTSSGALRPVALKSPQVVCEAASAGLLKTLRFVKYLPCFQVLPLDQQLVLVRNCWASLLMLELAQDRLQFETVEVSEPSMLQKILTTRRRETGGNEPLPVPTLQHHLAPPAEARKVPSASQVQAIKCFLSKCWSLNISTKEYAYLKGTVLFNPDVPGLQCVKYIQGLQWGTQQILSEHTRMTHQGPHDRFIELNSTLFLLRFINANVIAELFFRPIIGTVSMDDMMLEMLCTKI

AC50 [1]: 12 µM (active)
IC50 (Prothrombin): > 50 µM (not active)
EC50 [2]: 2.8 µM (active)
AC50 [3]: 8.33 µM (active)
Compound: COc1ccc(-c2n[nH]cc2-c2ccc3c(c2)OCCO3)c(O)c1

IC50 (Cysteine protease ATG4B): 11.3 µM (active)
IC50 (Phospholipase A2): 11.7 µM (active)
Compound: COc1ccc(C(=O)Nc2cc(C(=O)c3ccccc3)c(C)oc2=O)cc1

Compound: Cc1cc(N2CCN(C)CC2)nc2ccccc12
IC50 [4]: 31.7 µM (active)

Compound: COc1ccc(-c2c[n+](CC(=O)OC3CC(C)CCC3C(C)C)c3n2CCC3)cc1 (stereo unspecified)
AC50 (INS1): 1.78 µM (active)
AC50 [5]: 4.87 µM (active)
AC50 (A-375): 35 µM (active)
EC50 [6]: 0.894 µM (active)
IC50 [7]: < 0.25 µM (active)
EC50 [8]: > 150 µM (inactive)
IC50 [9]: < 0.25 µM (active)

Compound: Nn1c(SCc2c(F)cccc2F)nnc1-c1ccccn1
IC50 (HEK293): > 67.6 µM (inactive)
IC50 [10]: > 67.6 µM (inactive)
